# Measured values published in patent US8957192B2, “Human cytotoxic T-lymphocyte epitope and its agonist epitope from the non-variable number of tandem repeat sequence of MUC-1” (The United States of America, as represented by the …, priority 2003, dated 2015).
# Where “and” joins values, the source holds several entries; their conditions need not be identical. Equal entries are not always repeated.
# How the values were obtained:
# [1] = target: HLA-A2 molecule (Homo sapiens, UniProt P04439, I166T/I218V/L300P/L318F/N151K/N90K/P208A/P217A/Q86G/Q94H/R138H/R169H/T345S); assay: T2 cell binding assay: peptide binding to HLA-A2 by flow cytometry; details: Table 1; T2 cells, peptide 50 μg/ml
# Procedure: In this assay, increased stability (accumulation) of HLA-A2 molecules on the surface of T2 cells as a consequence of peptide binding is measured by increased binding of antibody directed against HLA-A2 molecule. Briefly, 1×10^6 cells in serum-free Iscove's modified Dulbecco's complete medium were incubated with peptides at a concentration of 50 μg/ml in 24-well culture plates at 37° C. in 5% CO2. Flow cytometry for peptide binding was performed using T2 cells and single-color analysis. After cells were washed three times in DPBS, as described above, they were incubated for 1 h with a 1:100 dilution of HLA-A2-specific MAb (One Lambda, Inc.) per 10^6 cells. UPC-10 (Cappel/Organon Teknika) was used as isotype control. The cells were then washed three times and incubated with 1:100 dilution of FITC-labeled anti-mouse IgG (BD Biosciences). Analysis was conducted with the FACScan, as described above. Cells were maintained on ice during all cell preparation and staining.
# The primary amino acid sequence of human MUC-1 was analyzed for consensus motifs for novel HLA-A2 binding peptides. […] The CEA CAP1-6D peptide and a NCA peptide were used as a positive and negative control, respectively.
# [2] = test system: T-1191-MUC-1 cells; assay: IFN-γ production (ELISA) by T-1191-MUC-1 cells stimulated with peptide-pulsed autologous B cells; type: cell-based, human; details: T-1191-MUC-1 at IVS-3; autologous EBV-B cells pulsed 25 μg/ml; effector-to-APC 1:3; 24 h
# Procedure: Supernatants of T cells exposed for 24 h to peptide-pulsed autologous EBV-transformed B cells, in IL-2-free medium at various peptide concentrations, were screened for secretion of IFN-γ using an ELISA kit (R & D Systems, Minneapolis, Minn.). The results were expressed in pg/ml. A CBA system (BD PharMingen, San Diego, Calif.) was also used to determine the secretion of multiple cytokines by specific T cells. The CBA system uses the fluorescence detection by flow cytometry to measure soluble analyses in a particles-based immunoassay. The BD human Th1/Th2 cytokine CBA Kit was used to measure IL-2, IL-4, IL-5, IL-10, TNF-α protein levels in a single sample. The cytokine capture beads were mixed with PE-conjugated detection antibodies and then incubated with recombinant cytokine standards or test samples to form sandwich complexes. The sample results were generated in graphic and tabular format, using BD PharMingen CBA analysis software. The results were expressed in pg/ml.
# The specificity of the MUC-1-specific T cells generated (designated T-1191-MUC-1) was analyzed after IVS cycle 3 (see Materials and Methods) for their ability to release IFN-γ after stimulation with autologous B cells pulsed with each of the MUC-1 peptides listed in Table 1.
# [3] = test system: T-cell lines T-55, T-49, T-41; assay: IFN-γ production by T-cell lines from cancer patients established with rF-CEA/MUC/TRICOM-infected DCs; type: cell-based, human; details: autologous DCs as APC; peptides 25 μg/ml; effector-to-APC 10:1; 24 h
# [4] = test system: MUC-1-specific T-cell lines T-23-P-92, T-23-P-93L, T-18-P-92, T-18-P-93L; assay: IFN-γ production by T-cell lines from two pancreatic cancer subjects stimulated with peptide-pulsed DCs; type: cell-based, human; details: IVS-4; allogeneic DCs pulsed 25 μg/ml; effector-to-APC 10:1; 24 h
# [5] = test system: CEA-specific T cells (V8T); type: cell-based, human; details: 24 h
# [6] = test system: MUC-1-specific T cells (T-1191-P93L); type: cell-based, human; details: 24 h
# [7] = test system: T-cell lines T-rV, T-rF, T-rF(CEA), T-rF(MUC); type: cell-based, human; details: 24 h
Sequence,T2 binding [1] [relative fluorescence],"Production of IFN-γ, with peptide [2] [pg/mL]",also measured
LAFREGTINV [Peptide P-1105],461,<52.3,
LIALAVCQC (YLIALAVCQC) [Peptide P-1177],338,<52.3,
LQRDISEMFL [Peptide P-1069],433,288.0,
REGTINVHDV [Peptide P-1108],482,<52.3,
TISDVSVSDV [Peptide P-1135],422,347.2,
TLASHSTKTD [Peptide P-1104],442,305.6,
"VISNDVCAQV [PSA peptide, prostate-specific antigen (PSA) peptide, control]",,,IFN-γ secretion by T-41 [3]: <15.6 pg/mL; IFN-γ secretion by T-49 [3]: <15.6 pg/mL; IFN-γ secretion by T-55 [3]: <15.6 pg/mL
VLVALAIVYL [Peptide P-1169],369,<52.3,
WGQDVTSVPV [Peptide P-94],591,323.6,
"YLSGADLNL [CAP1-6D, reference compound]",,,"IFN-γ produced by T-18-P-92 [4]: <26 pg; IFN-γ produced by T-18-P-93L [4]: <26 pg; IFN-γ produced by T-23-P-92 [4]: <26 pg; IFN-γ produced by T-23-P-93L [4]: <26 pg; IFN-γ, CEA-specific CTL [5]: 772 pg/mL and 820 pg/mL; IFN-γ, MUC-1-specific CTL [6]: <15 pg/mL; Production of IFN-γ by T-rF [7]: 550.0 pg/mL; Production of IFN-γ by T-rF(CEA) [7]: 729.2 pg/mL; Production of IFN-γ by T-rF(MUC) [7]: <15.6 pg/mL; Production of IFN-γ by T-rV [7]: 976.3 pg/mL; IFN-γ secretion by T-41 [3]: 933.4 pg/mL; IFN-γ secretion by T-49 [3]: 974.2 pg/mL; IFN-γ secretion by T-55 [3]: >1,000 pg/ml"
"YRPGENLNL [NCA, NCA peptide used as a negative control, reference compound]",365,,
